Conditions in all cases: stereoisomer not certain
A short description of data set [1]: RP, Waters CORTECS T3, 100 × 2.1 mm, 2.7 µm, 0.3 mL/min, estimated dead time 0.73 min; A: water + 0.1% formic acid, pH 3; B: methanol + 0.1% formic acid, pH 3; gradient (min/%B) 0/0 1/0 6/5 30/100 35/100 35.1/0 40/0.
Data set [2] is described as follows: HILIC, Merck SeQuant ZIC-HILIC, 150 × 2.1 mm, 5 µm, 0.75 mL/min, estimated dead time 0.44 min; A: water + 0.1% acetic acid + 10 mM ammonium acetate, pH 4; B: 5% water + 95% acetonitrile + 0.1% acetic acid + 10 mM ammonium acetate, pH 4; gradient (min/%B) 0/95 5/95 20/57 25/57 30/95 40/95.
Data set [3] in a line: RP, Waters ACQUITY UPLC BEH C18, 100 × 2.1 mm, 1.7 µm, 0.2 mL/min, estimated dead time 1.1 min; A: water + 0.025% formic acid + 20 mM ammonium acetate + 0.055% ammonium hydroxide, pH 7; B: methanol; gradient (min/%B) 0/5 5/5 25/100 30/100 30.1/5 35/5.
Data set [4] is described as follows: RP, Waters ACQUITY UPLC BEH C18, 100 × 2.1 mm, 1.7 µm, 0.1 mL/min, estimated dead time 2.2 min; A: water + 0.1% formic acid, pH 3; B: methanol + 0.1% formic acid, pH 3; gradient (min/%B) 0/5 5/5 25/95 25.1/100 35/100 35.1/5 45/5.
A short description of data set [5]: RP, Waters CORTECS T3, 100 × 2.1 mm, 2.7 µm, 0.25 mL/min, estimated dead time 0.88 min; A: water + 0.1% formic acid, pH 3; B: methanol + 0.1% formic acid, pH 3; gradient (min/%B) 0/5 5/5 25/95 25.1/100 35/100 35.1/5 45/5.
Data set [6] in a line: HILIC, Thermo Scientific Accucore HILIC, 100 × 2.1 mm, 2.6 µm, 0.5 mL/min, estimated dead time 0.44 min; A: water + 0.1% formic acid + 10 mM ammonium formate, pH 3; B: 5% water + 95% acetonitrile + 0.1% formic acid + 10 mM ammonium formate, pH 3; gradient (min/%B) 0/95 5/95 20/57 25/57 30/95 40/95.
The nature of data set [7]: RP, Waters CORTECS T3, 100 × 2.1 mm, 2.7 µm, 0.15 mL/min, estimated dead time 1.5 min; A: water + 0.1% formic acid, pH 3; B: methanol + 0.1% formic acid, pH 3; gradient (min/%B) 0/5 5/5 25/95 25.1/100 35/100 35.1/5 45/5.
The nature of data set [8]: RP, Waters CORTECS T3, 100 × 2.1 mm, 2.7 µm, 0.2 mL/min, estimated dead time 1.1 min; A: water + 0.1% formic acid, pH 3; B: methanol + 0.1% formic acid, pH 3; gradient (min/%B) 0/5 5/5 25/95 25.1/100 35/100 35.1/5 45/5.
Data set [9] can be described thus: RP, Waters ACQUITY UPLC BEH C18, 100 × 2.1 mm, 1.7 µm, 0.2 mL/min, estimated dead time 1.1 min; A: water + 0.1% formic acid, pH 3; B: methanol + 0.1% formic acid, pH 3; gradient (min/%B) 0/5 5/5 25/100 30/100 30.1/5 35/5.
Data set [10] is described as follows: RP, Waters CORTECS T3, 100 × 2.1 mm, 2.7 µm, 0.3 mL/min, estimated dead time 0.73 min; A: water + 0.1% formic acid, pH 3; B: methanol + 0.1% formic acid, pH 3; gradient (min/%B) 0/0 5/0 25/100 30/100 30.1/0 35/0.
A short description of data set [11]: RP, Waters CORTECS T3, 100 × 2.1 mm, 2.7 µm, 0.2 mL/min, estimated dead time 1.1 min; A: water + 0.1% formic acid, pH 3; B: methanol + 0.1% formic acid, pH 3; gradient (min/%B) 0/0 1/0 6/5 30/100 35/100 35.1/0 40/0.
The nature of data set [12]: HILIC, Merck SeQuant ZIC-HILIC, 150 × 2.1 mm, 5 µm, 0.75 mL/min, estimated dead time 0.44 min; A: water + 10 mM ammonium formate, pH 6; B: 5% water + 95% acetonitrile + 10 mM ammonium formate, pH 6; gradient (min/%B) 0/95 5/95 20/57 25/57 30/95 40/95.
The nature of data set [13]: HILIC, Waters XBridge BEH Amide, 100 × 2.1 mm, 2.5 µm, 0.5 mL/min, estimated dead time 0.44 min; A: water + 0.1% acetic acid + 10 mM ammonium acetate, pH 4; B: 5% water + 95% acetonitrile + 0.1% acetic acid + 10 mM ammonium acetate, pH 4; gradient (min/%B) 0/95 5/95 20/57 25/57 30/95 40/95.
The nature of data set [14]: RP, Waters ACQUITY UPLC BEH C18, 100 × 2.1 mm, 1.7 µm, 0.1 mL/min, estimated dead time 2.2 min; A: water + 0.1% formic acid, pH 3; B: methanol + 0.1% formic acid, pH 3; gradient (min/%B) 0/5 5/5 25/100 30/100 30.1/5 35/5.
Data set [15] in a line: RP, Waters ACQUITY UPLC BEH C18, 100 × 2.1 mm, 1.7 µm, 0.1 mL/min, estimated dead time 2.2 min; A: water + 0.045% formic acid + 0.11% ammonium hydroxide, pH 7; B: methanol; gradient (min/%B) 0/5 5/5 25/95 25.1/100 35/100 35.1/5 45/5.
A short description of data set [16]: RP, Waters CORTECS T3, 100 × 2.1 mm, 2.7 µm, 0.3 mL/min, estimated dead time 0.73 min; A: water + 0.1% formic acid, pH 3; B: methanol + 0.1% formic acid, pH 3; gradient (min/%B) 0/0 1/0 6/5 30/100 35/100 35.1/0 40/0. This is another data set of the same source.
The nature of data set [17]: RP, Waters ACQUITY UPLC BEH C18, 100 × 2.1 mm, 1.7 µm, 0.2 mL/min, estimated dead time 1.1 min; A: water + 0.025% formic acid + 20 mM ammonium acetate + 0.055% ammonium hydroxide, pH 7; B: methanol; gradient (min/%B) 0/5 5/5 25/100 30/100 30.1/5 35/5. This is another data set of the same source.
Data set [18] in a line: RP, Waters CORTECS T3, 100 × 2.1 mm, 2.7 µm, 0.3 mL/min, estimated dead time 0.73 min; A: water + 0.1% formic acid, pH 3; B: methanol + 0.1% formic acid, pH 3; gradient (min/%B) 0/0 5/0 25/100 30/100 30.1/0 35/0. The source holds these as a separate data set.
The nature of data set [19]: RP, Waters CORTECS T3, 100 × 2.1 mm, 2.7 µm, 0.15 mL/min, estimated dead time 1.5 min; A: water + 0.1% formic acid, pH 3; B: methanol + 0.1% formic acid, pH 3; gradient (min/%B) 0/0 1/0 6/5 30/100 35/100 35.1/0 40/0.
The nature of data set [20]: RP, Waters CORTECS T3, 100 × 2.1 mm, 2.7 µm, 0.25 mL/min, estimated dead time 0.88 min; A: water + 0.1% formic acid, pH 3; B: methanol + 0.1% formic acid, pH 3; gradient (min/%B) 0/0 1/0 6/5 30/100 35/100 35.1/0 40/0.

Structures can show the parent of a compound that is named as a salt.

This passage reports LC retention time results from the RepoRT retention time repository (doi:10.1016/j.jchromb.2020.122105).

As to `CC(=O)NCCCC(=O)[O-]` [4-ACETAMIDOBUTANOATE], the LC retention time in data set [1] is 3.71 min; in [2], 8.54 min; in [3], 1.38 min; in data set [4], 6.08 min; in data set [5] it was 2.43 min; in data set [6], 2.99 min. Also, the LC retention time in data set [7] is 3.97 min; in [8], 9.19 min; in data set [9], 3.16 min; in [10], 3.7 min; in data set [11] it was 5.13 min.
As for `O=C(O)CCCCCC(=O)O` [6-CARBOXYHEXANOATE], the LC retention time was 11.7 min in [1]; 12.9 min in data set [12]; 11.9 min in [2]; 15.6 min in [4]; 10.9 min in [5]; 2.01 min in [6]. In addition, the LC retention time was 13.1 min in data set [7]; 16.9 min in [8]; 11.9 min in data set [9]; 11.3 min in [10]; 13.3 min in data set [11].
Consider `Nc1ncnc2nc[nH]c12` [ADENINE], for which the LC retention time was 0.9 min in data set [1]; 2.16 min in data set [12]; 2.99 min in [13]; 2.71 min in data set [14]; 2.75 min in data set [15]; 1.89 min in data set [3]. For the same molecule, the LC retention time in data set [16] is 0.9 min; in data set [17], 3.46 min; in data set [4], 2.65 min; in [5] it was 1.06 min; in data set [6], 2.08 min; in [18] it was 0.91 min. Besides, the LC retention time in data set [8] was 2.67 min; in data set [19], 1.8 min; in data set [20], 1.06 min; in data set [9], 1.36 min; in [10], 0.91 min.
For `Nc1ccccc1S(=O)(=O)O` [ANILINE-2-SULFONIC ACID], the LC retention time was 2.13 min in data set [1]; 1.66 min in data set [13]; 2.03 min in data set [3]; 5.22 min in data set [4]; 1.89 min in [5]; 1.05 min in data set [6]. In addition, the LC retention time is 3.09 min in data set [7]; 5.88 min in data set [8]; 2.68 min in data set [9]; 2.13 min in data set [10]; 3.02 min in data set [11].
Regarding `CSCCC(NC=O)C(=O)O` [FORMYL-L-METHIONYL PEPTIDE], the LC retention time in data set [1] was 7.57 min; in data set [2], 7.68 min; in data set [3], 2.14 min; in data set [4], 12.3 min; in data set [5] it was 6.13 min; in data set [6], 5.85 min. The LC retention time was 9.18 min in data set [7]; 13.3 min in [8]; 8.3 min in data set [9]; 8.31 min in [10]; 9.43 min in data set [11].
As for `O=S(=O)(O)Oc1c[nH]c2ccccc12` [INDOXYL SULFATE], the LC retention time in data set [1] is 7.71 min; in [13] it was 0.95 min; in data set [2], 3.84 min; in data set [3] it was 5.76 min; in [4], 12.8 min; in [5] it was 6.23 min. The LC retention time in data set [6] is 0.54 min; in data set [7], 9.5 min; in data set [8] it was 13.6 min; in [9] it was 8.8 min; in data set [10] it was 8.35 min; in data set [11], 9.62 min.
Regarding `O=C(O)CCCCCCC(=O)O` [SUBERIC ACID], the LC retention time in [1] was 14.6 min; in data set [4], 18 min; in data set [5], 13.5 min; in data set [6], 1.39 min; in [7], 15.6 min; in [8], 19.6 min. For the same molecule, the values for the LC retention time in [9], in data set [10] and in [11] were 14.3 min, 13.5 min and 16.1 min, respectively.
